Reference: patent US11970462B1, “Ethyl 3-[4,4-bis(4-chlorophenyl)-2,5-dioxoimidazolidin-1-yl]propanoate as an antimicrobial compound” (KING FAISAL UNIVERSITY, priority 2024, dated 2024)

Assays:
Format in all cases: cell-based
Conditions in all cases: after 10, 20, 40 and 60 minutes at all dilutions 1:100, 1:200, 1:400, 1:800
Escherichia Coli = test: Antimicrobial testing by agar dilution, E. Coli
Procedure: (§1) The antimicrobial properties of the ethyl 3-[4,4-bis(4-chlorophenyl)-2,5-dioxoimidazolidin-1-yl]propanoate were studied by the method of agar dilution. Test solutions of each compound was prepared in concentration of 1% using dimethylformamide as a solvent then they are diluted in physiological solution to obtain the final experimental dilutions 1:100, 1:200, 1:400, 1:800. The effect of these substances are compared with furacillin in a controlable study. The testing microbes used were gram positive bacteria Staphylococcus aereus, gram negative bacteria Escherichia Coli, Pseudomonas aeruginosa and Candida albicans fungi were taken. The experiments used for this survey were meat-pentonlu agar (EPA) for cultivation of bacteria and Saburo environment for fungi. Each experiment used 1 ml of test solution on each plate 500 min. Add 2 drops of emulsified with microbes feel. All experimental samples were taken from the agar after 10, 20, 40, 60 minutes in the environment on the basis of Patrk planted. Bacteria were cultivated at a temperature of 37° C. for 1 day and the mushroom was kept in a thermostat for 2 hours at a temperature of 28° C. in the. Then results were checked.

Staphylococcus aereus = test: Antimicrobial testing by agar dilution, St. Aereus
Procedure: as §1

Candida albicans = test: Antimicrobial testing by agar dilution, Candida albicans
Procedure: as §1

Pseudomonas aeruginosa = test: Antimicrobial testing by agar dilution, Ps. aeruginosa
Procedure: as §1

CCOC(=O)CCN1C(=O)NC(c2ccc(Cl)cc2)(c2ccc(Cl)cc2)C1=O [ethyl 3-[4,4-bis(4-chlorophenyl)-2,5-dioxoimidazolidin-1-yl]propanoate]
higher inhibition activity: inhibition activity (in words), Escherichia Coli (Escherichia Coli) | inhibition activity (in words), Staphylococcus aereus (Staphylococcus aereus) | inhibition activity (in words), Candida albicans (Candida albicans) | inhibition activity (in words), Pseudomonas aeruginosa (Pseudomonas aeruginosa)
